In ChEMBL document CHEMBL3352542, “Synthesis, biological evaluation and molecular modeling study of 2-(1,3,4-thiadiazolyl-thio and 4-methyl-thiazolyl-thio)-quinazolin-4-ones as a new class of DHFR inhibitors” (Bioorg Med Chem Lett, 2014):
Calls of active or inactive are those of the source.

Experiments:
SR = assay: Growth inhibition of human SR cells at 10 uM after 48 hrs; type: functional
A549 = assay: Growth inhibition of human A549 cells at 10 uM after 48 hrs; type: functional
MDA-MB-468 = assay: Growth inhibition of human MDA-MB-468 cells at 10 uM after 48 hrs; type: functional
HL-60(TB) = assay: Growth inhibition of human HL-60(TB) cells at 10 uM after 48 hrs; type: functional
Staphylococcus aureus = assay: Antimicrobial activity against Staphylococcus aureus assessed as inhibition zone at 200 ug/disk after 24 hrs by disc-diffusion method; type: functional; conditions: read-out: IZ
NCI-H226 = assay: Growth inhibition of human NCI-H226 cells at 10 uM after 48 hrs; type: functional
Escherichia coli = assay: Antimicrobial activity against Escherichia coli assessed as inhibition zone at 200 ug/disk after 24 hrs by disc-diffusion method; type: functional; conditions: read-out: IZ
KM12 = assay: Growth inhibition of human KM12 cells at 10 uM after 48 hrs; type: functional
K562 = assay: Growth inhibition of human K562 cells at 10 uM after 48 hrs; type: functional
SF-539 = assay: Growth inhibition of human SF539 cells at 10 uM after 48 hrs; type: functional
HOP-62 = assay: Growth inhibition of human HOP62 cells at 10 uM after 48 hrs; type: functional
PC-3 = assay: Growth inhibition of human PC3 cells at 10 uM after 48 hrs; type: functional
RXF 393 = assay: Growth inhibition of human RXF393 cells at 10 uM after 48 hrs; type: functional
Dihydrofolate reductase = target: T1, Dihydrofolate reductase (Bos taurus, UniProt P00376); assay: Inhibition of bovine liver DHFR
T1 sequence (P00376 whole entry): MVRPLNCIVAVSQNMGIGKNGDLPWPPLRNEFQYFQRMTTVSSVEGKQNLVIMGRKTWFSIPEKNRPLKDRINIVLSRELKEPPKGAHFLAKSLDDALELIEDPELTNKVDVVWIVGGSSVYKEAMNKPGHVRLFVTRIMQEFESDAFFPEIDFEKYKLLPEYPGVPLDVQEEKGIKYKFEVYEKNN

MOLT-4 = assay: Growth inhibition of human MOLT4 cells at 10 uM after 48 hrs; type: functional
OVCAR-4 = assay: Growth inhibition of human OVCAR4 cells at 10 uM after 48 hrs; type: functional
SF-295 = assay: Growth inhibition of human SF295 cells at 10 uM after 48 hrs; type: functional
Bacillus subtilis = assay: Antimicrobial activity against Bacillus subtilis assessed as inhibition zone at 200 ug/disk after 24 hrs by disc-diffusion method; type: functional; conditions: read-out: IZ
HCT-15 = assay: Growth inhibition of human HCT15 cells at 10 uM after 48 hrs; type: functional
SK-MEL-5 = assay: Growth inhibition of human SK-MEL-5 cells at 10 uM after 48 hrs; type: functional
HCT-116 = assay: Growth inhibition of human HCT116 cells at 10 uM after 48 hrs; type: functional
UACC-62 = assay: Growth inhibition of human UACC62 cells at 10 uM after 48 hrs; type: functional
RPMI-8226 = assay: Growth inhibition of human RPMI8226 cells at 10 uM after 48 hrs; type: functional
SK-MEL-28 = assay: Growth inhibition of human SK-MEL-28 cells at 10 uM after 48 hrs; type: functional, cell-based
HOP-92 = assay: Growth inhibition of human HOP92 cells at 10 uM after 48 hrs; type: functional
Malme-3M = assay: Growth inhibition of human MALME-3M cells at 10 uM after 48 hrs; type: functional
Candida albicans = assay: Antimicrobial activity against Candida albicans assessed as inhibition zone at 200 ug/disk after 24 hrs by disc-diffusion method; type: functional; conditions: read-out: IZ
CAKI-1 = assay: Growth inhibition of human CAKI-1 cells at 10 uM after 48 hrs; type: functional
786-0 = assay: Growth inhibition of human 786-0 cells at 10 uM after 48 hrs; type: functional
MDA-MB-231 = assay: Growth inhibition of human MDA-MB-231 cells at 10 uM after 48 hrs; type: functional
HT-29 = assay: Growth inhibition of human HT-29 cells at 10 uM after 48 hrs; type: functional
MDA-MB-435 = assay: Growth inhibition of human MDA-MB-435 cells at 10 uM after 48 hrs; type: functional
UACC-257 = assay: Growth inhibition of human UACC257 cells at 10 uM after 48 hrs; type: functional
SNB-19 = assay: Growth inhibition of human SNB19 cells at 10 uM after 48 hrs; type: functional
Hs-578T = assay: Growth inhibition of human Hs 578T cells at 10 uM after 48 hrs; type: functional
UO-31 = assay: Growth inhibition of human UO31 cells at 10 uM after 48 hrs; type: functional
A498 = assay: Growth inhibition of human A498 cells at 10 uM after 48 hrs; type: functional
Pseudomonas aeruginosa = assay: Antimicrobial activity against Pseudomonas aeruginosa assessed as inhibition zone at 200 ug/disk after 24 hrs by disc-diffusion method; type: functional; conditions: read-out: IZ
U-251 = assay: Growth inhibition of human U251 cells at 10 uM after 48 hrs; type: functional
CCRF-CEM = assay: Growth inhibition of human CCRF-CEM cells at 10 uM after 48 hrs; type: functional
T47D = assay: Growth inhibition of human T47D cells at 10 uM after 48 hrs; type: functional
NCI-H522 = assay: Growth inhibition of human NCI-H522 cells at 10 uM after 48 hrs; type: functional
MCF7 = assay: Growth inhibition of human MCF7 cells at 10 uM after 48 hrs; type: functional

COc1cc2nc(Sc3nnc(N)s3)n(-c3ccc(C)cc3)c(=O)c2cc1OC
inactive: growth inhibition (GI) (SR) | growth inhibition (GI) (A549) | growth inhibition (GI) (MDA-MB-468) | growth inhibition (GI) (HL-60(TB)) | growth inhibition (GI) (NCI-H226) | growth inhibition (GI) (KM12) | growth inhibition (GI) (K562) | growth inhibition (GI) (SF-539) | growth inhibition (GI) (HOP-62) | growth inhibition (GI) (PC-3) | growth inhibition (GI) (RXF 393) | growth inhibition (GI) (MOLT-4) | growth inhibition (GI) (OVCAR-4) | growth inhibition (GI) (SF-295) | growth inhibition (GI) (HCT-15) | growth inhibition (GI) (SK-MEL-5) | growth inhibition (GI) (HCT-116) | growth inhibition (GI) (UACC-62) | growth inhibition (GI) (RPMI-8226) | growth inhibition (GI) (SK-MEL-28) | growth inhibition (GI) (HOP-92) | growth inhibition (GI) (Malme-3M) | growth inhibition (GI) (CAKI-1) | growth inhibition (GI) (786-0) | growth inhibition (GI) (MDA-MB-231) | growth inhibition (GI) (HT-29) | growth inhibition (GI) (MDA-MB-435) | growth inhibition (GI) (UACC-257) | growth inhibition (GI) (SNB-19) | growth inhibition (GI) (Hs-578T) | growth inhibition (GI) (UO-31) | growth inhibition (GI) (A498) | growth inhibition (GI) (U-251) | growth inhibition (GI) (CCRF-CEM) | growth inhibition (GI) (T47D) | growth inhibition (GI) (NCI-H522) | growth inhibition (GI) (MCF7)
14 mm: zone of inhibition at 200 µg/disc (Staphylococcus aureus)
1000 nM: IC50 (Dihydrofolate reductase)
15 mm: zone of inhibition at 200 µg/disc (Bacillus subtilis)
8 mm: zone of inhibition at 200 µg/disc (Escherichia coli) | zone of inhibition at 200 µg/disc (Candida albicans) | zone of inhibition at 200 µg/disc (Pseudomonas aeruginosa)

Cc1ccc2nc(Sc3nnc(N)s3)n(-c3ccc(Oc4ccccc4)cc3)c(=O)c2c1
100 nM: IC50 (Dihydrofolate reductase)
8 mm: zone of inhibition at 200 µg/disc (Staphylococcus aureus) | zone of inhibition at 200 µg/disc (Escherichia coli) | zone of inhibition at 200 µg/disc (Bacillus subtilis) | zone of inhibition at 200 µg/disc (Candida albicans) | zone of inhibition at 200 µg/disc (Pseudomonas aeruginosa)
inactive: growth inhibition (GI) (SR) | growth inhibition (GI) (A549) | growth inhibition (GI) (MDA-MB-468) | growth inhibition (GI) (HL-60(TB)) | growth inhibition (GI) (NCI-H226) | growth inhibition (GI) (KM12) | growth inhibition (GI) (K562) | growth inhibition (GI) (SF-539) | growth inhibition (GI) (HOP-62) | growth inhibition (GI) (PC-3) | growth inhibition (GI) (RXF 393) | growth inhibition (GI) (MOLT-4) | growth inhibition (GI) (OVCAR-4) | growth inhibition (GI) (SF-295) | growth inhibition (GI) (HCT-15) | growth inhibition (GI) (SK-MEL-5) | growth inhibition (GI) (HCT-116) | growth inhibition (GI) (UACC-62) | growth inhibition (GI) (RPMI-8226) | growth inhibition (GI) (SK-MEL-28) | growth inhibition (GI) (HOP-92) | growth inhibition (GI) (Malme-3M) | growth inhibition (GI) (CAKI-1) | growth inhibition (GI) (786-0) | growth inhibition (GI) (MDA-MB-231) | growth inhibition (GI) (HT-29) | growth inhibition (GI) (MDA-MB-435) | growth inhibition (GI) (UACC-257) | growth inhibition (GI) (SNB-19) | growth inhibition (GI) (Hs-578T) | growth inhibition (GI) (UO-31) | growth inhibition (GI) (A498) | growth inhibition (GI) (U-251) | growth inhibition (GI) (CCRF-CEM) | growth inhibition (GI) (T47D) | growth inhibition (GI) (NCI-H522) | growth inhibition (GI) (MCF7)
